Data published in patent US9403846B2, “Carbocyclic- and heterocyclic-substituted hexahydropyrano[3,4-d][1,3]thiazin-2-amine compounds” (Pfizer Inc., priority 2012, dated 2016).
Structures can show the parent of a compound that is named as a salt.

Legend:
[1] = tested on: sAPPβ levels in H4 human neuroglioma cells over-expressing the wild-type human APP695; experiment: Whole Cell Assay (In Vitro sAPPb Assay); format: cell-based; settings: 18 hours, geometric mean of 2-3 determinations (Ex. 2: ≧6 determinations)
BACE1 enzyme = BACE1 enzyme (Homo sapiens (Human), UniProt P56817); experiment: BACE1 Cell-Free Assay (fluorescence polarization);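 for all read-outs here: Affinity-purified soluble BACE1 from transfected CHO-K1 cells cleaving a biotinylated, Oregon Green-labelled synthetic APP peptide, 3 h at 37 °C, cleavage followed by fluorescence polarization change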; format: biochemical; settings: for IC50: geometric mean of 2-3 determinations (Ex. 2: ≧6 determinations); for biological activity (in words, see Table 3): statement used to assign absolute stereochemistry, refers to Table 3
Sequence of BACE1 enzyme (P56817 46-457): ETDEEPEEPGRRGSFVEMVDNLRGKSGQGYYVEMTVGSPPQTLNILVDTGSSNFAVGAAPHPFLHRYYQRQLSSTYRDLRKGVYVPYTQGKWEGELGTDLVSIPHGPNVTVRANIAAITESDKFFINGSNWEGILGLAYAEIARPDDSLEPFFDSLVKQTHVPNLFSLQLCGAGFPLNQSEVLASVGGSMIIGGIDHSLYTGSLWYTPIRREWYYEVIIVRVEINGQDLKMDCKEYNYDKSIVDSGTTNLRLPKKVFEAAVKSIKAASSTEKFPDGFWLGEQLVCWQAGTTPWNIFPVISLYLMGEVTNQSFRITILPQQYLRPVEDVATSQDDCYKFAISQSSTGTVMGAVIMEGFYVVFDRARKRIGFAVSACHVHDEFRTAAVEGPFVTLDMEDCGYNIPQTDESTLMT

BACE2 enzyme = BACE2 enzyme (Homo sapiens (Human), UniProt Q9Y5Z0); experiment: BACE2 Assay (cell-free, fluorescence polarization); format: biochemical; settings: single determination
Sequence of BACE2 enzyme (Q9Y5Z0 63-518): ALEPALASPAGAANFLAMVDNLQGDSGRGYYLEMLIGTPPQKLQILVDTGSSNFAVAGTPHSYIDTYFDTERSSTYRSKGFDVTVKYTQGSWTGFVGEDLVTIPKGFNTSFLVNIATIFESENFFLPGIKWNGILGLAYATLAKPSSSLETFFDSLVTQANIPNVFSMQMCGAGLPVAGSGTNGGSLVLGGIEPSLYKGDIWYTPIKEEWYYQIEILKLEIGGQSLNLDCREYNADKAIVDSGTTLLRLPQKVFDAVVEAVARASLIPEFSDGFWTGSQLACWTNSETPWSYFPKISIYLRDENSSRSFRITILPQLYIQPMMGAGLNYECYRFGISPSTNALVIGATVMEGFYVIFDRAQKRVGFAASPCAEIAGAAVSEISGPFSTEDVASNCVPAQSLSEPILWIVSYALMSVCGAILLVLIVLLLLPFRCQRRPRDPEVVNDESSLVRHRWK
Experimental: This assay measures the inhibition of the BACE2 enzyme as it cleaves a non-native peptide. A synthetic substrate that can be cleaved by BACE2 having N-terminal biotin and made fluorescent by the covalent attachment of Oregon Green at the Cys residue is used to assay BACE2 activity in the presence or absence of the inhibitory compounds. The substrate is Biotin-[…]-C(Oregon green)-KK-OH. The BACE2 enzyme is available from Enzo Life Sciences (Cat # BML-SE550). Compounds are incubated in a ½ log dose response curve from a top concentration of 100 μM with BACE2 enzyme and the biotinylated fluorescent peptide in 384-well black plates (Thermo Scientific #4318). BACE2 is at a final concentration of 2.5 nM with a final concentration of peptide substrate of 150 nM in a reaction volume of 30 μL assay buffer (100 mM sodium acetate, pH 4.5 (brought to pH with acetic acid), and 0.001% Tween-20). Plates are covered and incubated for 3 hours at 37° C. The reaction is stopped with the addition of 30 μL of 1.5 μM Streptavidin (Pierce, #21125). After a 10 minute incubation at room temperature, plates are read on a PerkinElmer EnVision for fluorescence polarization (Ex485 nm/Em530 nm). The activity of the beta-secretase enzyme is detected by changes in the fluorescence polarization that occur when the substrate is cleaved by the enzyme.

Row | IC50 ([1]; Homo sapiens) [µM] | IC50 (BACE1 enzyme) [µM] | IC50 (BACE2 enzyme) [µM] | IC50 [1] [µM] | biological activity (in words, see Table 3) (BACE1 enzyme) | Structure (SMILES)
1 | 1.56 | 25.7 | – | – | – | NC1=N[C@]2(c3ccccc3F)CO[C@H](C3CC3)C[C@@H]2CS1 [Example 17, (4aS,6S,8aR)-6-Cyclopropyl-8a-(2-fluorophenyl)-4,4a,5,6,8,8a-hexahydropyrano[3,4-d][1,3]thiazin-2-amine]
2 | 2.22 | 15.6 | – | – | – | NC1=N[C@]2(c3ccc(F)cc3)CO[C@H](C3CC3)C[C@@H]2CS1 [Example 18, (4aS,6S,8aR)-6-Cyclopropyl-8a-(4-fluorophenyl)-4,4a,5,6,8,8a-hexahydropyrano[3,4-d][1,3]thiazin-2-amine]
3 | 0.0179 | 0.184 | – | – | – | CC1(C)CCC([C@H]2C[C@H]3CSC(N)=N[C@@]3(c3ccc(F)cc3F)CO2)O1 (stereo partly drawn) [Example 19, (4aR,6R,8aS)-8a-(2,4-Difluorophenyl)-6-(5,5-dimethyltetrahydrofuran-2-yl)-4,4a,5,6,8,8a-hexahydropyrano[3,4-d][1,3]thiazin-2-amine]
4 | 0.0162 | 0.116 | – | – | – | C[C@@H]1C[C@H]1[C@H]1C[C@H]2CSC(N)=N[C@@]2(c2ccc(F)cc2F)CO1 [Example 20, (4aR,6R,8aS)-8a-(2,4-Difluorophenyl)-6-[(1R,2R)-2-methylcyclopropyl]-4,4a,5,6,8,8a-hexahydropyrano[3,4-d][1,3]thiazin-2-amine]
5 | 0.0397 | 0.302 | – | – | – | NC1=N[C@@]2(c3ccc(F)cc3F)CO[C@@H]([C@@H]3CCCO3)C[C@H]2CS1 [Example 21, (4aR,6R,8aS)-8a-(2,4-Difluorophenyl)-6-[(2S)-tetrahydrofuran-2-yl]-4,4a,5,6,8,8a-hexahydropyrano[3,4-d][1,3]thiazin-2-amine]
6 | – | – | – | 17.3 | essentially inactive | NC1=N[C@]2(c3ccc(F)cc3F)CO[C@H](C3CC3)C[C@@H]2CS1 [Example C23, (4aS,6S,8aR)-6-cyclopropyl-8a-(2,4-difluorophenyl)-4,4a,5,6,8,8a-hexahydropyrano[3,4-d][1,3]thiazin-2-amine]
7 | > 30 | > 100 | – | – | inactive | Cl.NC1=N[C@]2(c3ccc(F)cc3F)CO[C@H](C3CC3)C[C@@H]2[C@H](CF)S1 [Example C48, (4R,4aS,6S,8aR)-6-cyclopropyl-8a-(2,4-difluorophenyl)-4-(fluoromethyl)-4,4a,5,6,8,8a-hexahydropyrano[3,4-d][1,3]thiazin-2-amine, hydrochloride salt]
8 | 2.89 | 37 | – | – | essentially inactive | CC1([C@@H]2C[C@@H]3CSC(N)=N[C@]3(c3ccc(F)cc3F)CO2)CC1 [Example C61, (4aS,6S,8aR)-8a-(2,4-difluorophenyl)-6-(1-methylcyclopropyl)-4,4a,5,6,8,8a-hexahydropyrano[3,4-d][1,3]thiazin-2-amine]
9 | 7.4 | > 86 | – | – | essentially inactive | NC1=N[C@]2(c3ccc(F)cc3F)CO[C@H](CC3CC3)C[C@@H]2CS1 [Example C74, (4aS,6R,8aR)-6-(cyclopropylmethyl)-8a-(2,4-difluorophenyl)-4,4a,5,6,8,8a-hexahydropyrano[3,4-d][1,3]thiazin-2-amine]

Continued, compound first:

Row | Structure (SMILES) | IC50 ([1]; Homo sapiens) [µM] | IC50 (BACE1 enzyme) [µM] | IC50 (BACE2 enzyme) [µM] | IC50 [1] [µM] | biological activity (in words, see Table 3) (BACE1 enzyme)
10 | COC[C@H]1SC(N)=N[C@@]2(c3ccc(F)cc3F)CO[C@@H](C3CC3)C[C@@H]12 (racemic) [Example 5, rel-(4S,4aR,6R,8aS)-6-Cyclopropyl-8a-(2,4-difluorophenyl)-4-(methoxymethyl)-4,4a,5,6,8,8a-hexahydropyrano[3,4-d][1,3]thiazin-2-amine, hydrochloride salt] | 0.116 | 1.41 | – | – | –
11 | NC1=N[C@@]2(c3ccc(F)cc3F)CO[C@@H](C3CCCO3)C[C@H]2CS1 (stereo partly drawn) [Example 1, (4aR,6R,8aS)-8a-(2,4-Difluorophenyl)-6-(tetrahydrofuran-2-yl)-4,4a,5,6,8,8a-hexahydropyrano[3,4-d][1,3]thiazin-2-amine, trifluoroacetate salt] | 0.0738 | 0.447 | 1.29 | – | –
12 | NC1=N[C@@]2(c3ccc(F)cc3F)CO[C@@H](C3CC3)C[C@H]2CS1 [Example 2, (4aR,6R,8aS)-6-Cyclopropyl-8a-(2,4-difluorophenyl)-4,4a,5,6,8,8a-hexahydropyrano[3,4-d][1,3]thiazin-2-amine] | 0.0242 | – | 2.26 | – | –
13 | C[C@H]1SC(N)=N[C@@]2(c3ccc(F)cc3F)CO[C@@H](C3CC3)C[C@@H]12 [Example 3, (4R,4aR,6R,8aS)-6-Cyclopropyl-8a-(2,4-difluorophenyl)-4-methyl-4,4a,5,6,8,8a-hexahydropyrano[3,4-d][1,3]thiazin-2-amine, trifluoroacetate salt] | 0.0389 | 0.337 | 2.49 | – | –
14 | NC1=N[C@@]2(c3ccc(F)cc3F)CO[C@@H](C3CCO3)C[C@H]2CS1 (stereo partly drawn) [Example 4, (4aR,6R,8aS)-8a-(2,4-Difluorophenyl)-6-(oxetan-2-yl)-4,4a,5,6,8,8a-hexahydropyrano[3,4-d][1,3]thiazin-2-amine] | 0.137 | 1.31 | – | – | –
15 | NC1=N[C@@]2(c3ccc(F)cc3F)CO[C@@H](C3CC3)C[C@H]2[C@@H](CF)S1 [Example 6, (4S,4aR,6R,8aS)-6-Cyclopropyl-8a-(2,4-difluorophenyl)-4-(fluoromethyl)-4,4a,5,6,8,8a-hexahydropyrano[3,4-d][1,3]thiazin-2-amine, hydrochloride salt] | 0.0391 | 0.346 | – | – | –
16 | CC1([C@H]2C[C@H]3CSC(N)=N[C@@]3(c3ccc(F)cc3F)CO2)CC1 [Example 7, (4aR,6R,8aS)-8a-(2,4-Difluorophenyl)-6-(1-methylcyclopropyl)-4,4a,5,6,8,8a-hexahydropyrano[3,4-d][1,3]thiazin-2-amine] | 0.142 | 0.484 | – | – | –
17 | NC1=N[C@@]2(c3ccc(F)cc3F)CO[C@@H](CC3CC3)C[C@H]2CS1 [Example 8, (4aR,6S,8aS)-6-(Cyclopropylmethyl)-8a-(2,4-difluorophenyl)-4,4a,5,6,8,8a-hexahydropyrano[3,4-d][1,3]thiazin-2-amine] | 0.0612 | 0.235 | – | – | –
18 | NC1=N[C@@]2(c3c(F)cc(F)cc3F)CO[C@@H](C3CC3)C[C@H]2CS1 [Example 9, (4aR,6R,8aS)-6-Cyclopropyl-8a-(2,4,6-trifluorophenyl)-4,4a,5,6,8,8a-hexahydropyrano[3,4-d][1,3]thiazin-2-amine] | 0.0572 | 1.05 | – | – | –
19 | NC1=N[C@@]2(c3ccc(F)cc3)CO[C@@H](C3CC3)C[C@H]2CS1 [Example 10, (4aR,6R,8aS)-6-Cyclopropyl-8a-(4-fluorophenyl)-4,4a,5,6,8,8a-hexahydropyrano[3,4-d][1,3]thiazin-2-amine] | 0.0897 | 0.572 | – | – | –
20 | NC1=N[C@@]2(c3cc(F)ccc3F)CO[C@@H](C3CC3)C[C@H]2CS1 [Example 11, (4aR,6R,8aS)-6-Cyclopropyl-8a-(2,5-difluorophenyl)-4,4a,5,6,8,8a-hexahydropyrano[3,4-d][1,3]thiazin-2-amine] | 0.0851 | 1.42 | – | – | –
21 | NC1=N[C@@]2(c3c(F)cccc3F)CO[C@@H](C3CC3)C[C@H]2CS1 [Example 12, (4aR,6R,8aS)-6-Cyclopropyl-8a-(2,6-difluorophenyl)-4,4a,5,6,8,8a-hexahydropyrano[3,4-d][1,3]thiazin-2-amine] | 0.0346 | 0.395 | – | – | –
22 | NC1=N[C@@]2(c3ccccc3F)CO[C@@H](C3CC3)C[C@H]2CS1 [Example 13, (4aR,6R,8aS)-6-Cyclopropyl-8a-(2-fluorophenyl)-4,4a,5,6,8,8a-hexahydropyrano[3,4-d][1,3]thiazin-2-amine] | 0.04 | 0.422 | – | – | –
23 | NC1=N[C@@]2(c3ccccc3)CO[C@@H](C3CC3)C[C@H]2CS1 [Example 14, (4aR,6R,8aS)-6-Cyclopropyl-8a-phenyl-4,4a,5,6,8,8a-hexahydropyrano[3,4-d][1,3]thiazin-2-amine] | 0.142 | 1.28 | – | – | –
24 | Cc1ccc([C@]23CO[C@@H](C4CC4)C[C@H]2CSC(N)=N3)c(F)c1 [Example 15, (4aR,6R,8aS)-6-Cyclopropyl-8a-(2-fluoro-4-methylphenyl)-4,4a,5,6,8,8a-hexahydropyrano[3,4-d][1,3]thiazin-2-amine] | 0.0721 | 0.715 | – | – | –
25 | Cc1ccc([C@]23CO[C@@H](C4CC4)C[C@H]2CSC(N)=N3)cc1F [Example 16, (4aR,6R,8aS)-6-Cyclopropyl-8a-(3-fluoro-4-methylphenyl)-4,4a,5,6,8,8a-hexahydropyrano[3,4-d][1,3]thiazin-2-amine] | 0.0923 | 0.897 | – | – | –
